Assay results: the supplement of paper PMC11061612

What was measured:
[1] = tested on: C-33-A (Cervical Carcinoma); assay: Bliss excess, mean over the matrix (fraction); higher = more synergy
Procedure, shortened: (§1)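 After 24 hours at 37°C and 5% CO2 in 1536-well plates, cells in DMEM/F12 or RPMI plus 10% FBS received two-drug dose matrices for 72 hours. Viability came from CellTiter-Glo 2.0 luminescence and was scaled as inhibition, anchored at 0 by vehicle wells and at 1 by blank wells. Combination Emax is taken as the second-highest inhibition in the matrix, and Bliss excess as the observed combination effect less EA + EB − EA·EB, with EA and EB the single-agent effects.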

[2] = tested on: CPC-N (Small Cell Lung Carcinoma); assay: as above
Procedure, shortened: as §1

ES6 (Ewing's Sarcoma) [3] = assay: as above
Procedure, shortened: as §1

[4] = tested on: MDA-MB-415 (Breast Carcinoma); assay: as above
Procedure, shortened: as §1

[5] = tested on: SK-CO-1 (Colorectal Carcinoma); assay: as above
Procedure, shortened: as §1

[6] = tested on: SNU-423 (Hepatocellular Carcinoma); assay: as above
Procedure, shortened: as §1

[7] = tested on: COR-L88 (Small Cell Lung Carcinoma); assay: combination Emax (second highest fraction inhibited in the dose matrix, 72 h); higher = more inhibition; extreme values may be limits of the assay
Procedure, shortened: as §1

[8] = tested on: CPC-N (Small Cell Lung Carcinoma); assay: as above
Procedure, shortened: as §1

ES6 (Ewing's Sarcoma) [9] = assay: as above
Procedure, shortened: as §1

[10] = tested on: HPAF-II (Pancreatic Carcinoma); assay: as above
Procedure, shortened: as §1

KALS-1 (Glioblastoma) = assay: as above
Procedure, shortened: as §1

[11] = tested on: LCLC-103H (Non-Small Cell Lung Carcinoma); assay: as above
Procedure, shortened: as §1

[12] = tested on: LS-1034 (Colorectal Carcinoma); assay: as above
Procedure, shortened: as §1

[13] = tested on: NCI-H3118 (Head and Neck Carcinoma); assay: as above
Procedure, shortened: as §1

[14] = tested on: SCC-4 (Oral Cavity Carcinoma); assay: as above
Procedure, shortened: as §1

[15] = tested on: SK-CO-1 (Colorectal Carcinoma); assay: as above
Procedure, shortened: as §1

SK-N-SH (Neuroblastoma) = assay: as above
Procedure, shortened: as §1

[16] = tested on: SKG-IIIa (Cervical Carcinoma); assay: as above
Procedure, shortened: as §1

[17] = tested on: T84 (Colorectal Carcinoma); assay: as above
Procedure, shortened: as §1

[18] = tested on: ZR-75-30 (Breast Carcinoma); assay: as above
Procedure, shortened: as §1
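Wherever Bliss excess, mean over the matrix is given: after 72 h of two-drug dosing.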

| Compound | Bliss excess [1] | Bliss excess [2] | Bliss excess (ES6 (Ewing's Sarcoma) [3]) | Bliss excess [4] | Bliss excess [5] | Bliss excess [6] | combination Emax [7] | combination Emax [8] | combination Emax (ES6 (Ewing's Sarcoma) [9]) | combination Emax [10] | combination Emax (KALS-1 (Glioblastoma)) | combination Emax [11] | combination Emax [12] | combination Emax [13] | combination Emax [14] | combination Emax [15] | combination Emax (SK-N-SH (Neuroblastoma)) | combination Emax [16] | combination Emax [17] | combination Emax [18] |
| --- | --- | --- | --- | --- | --- | --- | --- | --- | --- | --- | --- | --- | --- | --- | --- | --- | --- | --- | --- | --- |
| C[C@@H](Nc1cc(F)cc(F)c1)c1cc(C(=O)N(C)C)cc2c(=O)cc(N3CCOCC3)oc12 [AZD8186] + C1CN(CCC1(C(=O)N[C@@H](CCO)C2=CC=C(C=C2)Cl)N)C3=NC=NC4=C3C=CN4 [AZD5363] (first compound max 10 µM, 7x7, partner max 10 µM) | -0.0501 | -0.0478 | -0.0213 | -0.0251 | 0.0309 | -0.0692 | 0.171 | 0.33 | 0.365 | 0.249 | 0.398 | 0.417 | 0.294 | 0.519 | 0.383 | 0.725 | 0.364 | 0.303 | 0.337 | 0.441 |
| CS(=O)(=O)CCNCc1ccc(-c2ccc3ncnc(Nc4ccc(OCc5cccc(F)c5)c(Cl)c4)c3c2)o1 [Lapatinib] + Cn1cnc2c(F)c(Nc3ccc(Br)cc3Cl)c(C(=O)NOCCO)cc21 [Selumetinib] (first compound max 10 µM, 7x7, partner max 10 µM) | 0.0282 | -0.0085 | -0.0159 | -0.0575 | 0.0335 | -0.0083 | 0.215 | 0.251 | 0.553 | 0.877 | 0.575 | 0.309 | 0.727 | 0.653 | 0.557 | 0.886 | 0.398 | 0.393 | 0.763 | 0.807 |
| CS(=O)(=O)CCNCc1ccc(-c2ccc3ncnc(Nc4ccc(OCc5cccc(F)c5)c(Cl)c4)c3c2)o1 [Lapatinib] + NC1(c2ccc(-c3nc4ccn5c(=O)[nH]nc5c4cc3-c3ccccc3)cc2)CCC1 [MK-2206] (first compound max 10 µM, 7x7, partner max 10 µM) | 0.0295 | -0.0202 | -0.0408 | 0.0306 | 0.0289 | 0.0232 | 0.812 | 0.847 | 0.879 | 0.402 | 0.718 | 0.538 | 0.919 | 0.783 | 0.719 | 0.793 | 0.921 | 0.36 | 0.832 | 0.912 |
| Cc1c2c(nn1C)CSCc1cc(n(C)n1)CSc1cc(c3ccccc3c1)OCCCc1c(C(=O)O)n(C)c3c-2c(Cl)ccc13 [AZD5991] + CC(=O)O[C@H]1C(=O)[C@@]2(C)[C@H]([C@H](OC(=O)c3ccccc3)[C@]3(O)C[C@H](OC(=O)[C@H](O)[C@@H](NC(=O)c4ccccc4)c4ccccc4)C(C)=C1C3(C)C)[C@]1(OC(C)=O)CO[C@@H]1C[C@@H]2O [Paclitaxel] (first compound max 1 µM, 7x7, partner max 3 µM) | -0.0095 | -0.0539 | 0.005 | 0.0268 | -0.052 | -0.0344 | 0.515 | 0.773 | 0.312 | 0.53 | 0.951 | 0.91 | 0.587 | 0.973 | 0.868 | 0.858 | 0.926 | 0.487 | 0.701 | 0.441 |
| CN(CCO)CC[C@H](CSc1ccccc1)Nc1ccc(S(=O)(=O)NC(=O)c2ccc(N3CCC([C@@H](O)c4ccccc4-c4ccc(Cl)cc4)CC3)cc2)cc1S(=O)(=O)C(F)(F)F [AZD4320] + CC(=O)O[C@H]1C(=O)[C@@]2(C)[C@H]([C@H](OC(=O)c3ccccc3)[C@]3(O)C[C@H](OC(=O)[C@H](O)[C@@H](NC(=O)c4ccccc4)c4ccccc4)C(C)=C1C3(C)C)[C@]1(OC(C)=O)CO[C@@H]1C[C@@H]2O [Paclitaxel] (first compound max 1 µM, 7x7, partner max 3 µM) | 0.0811 | 0.0262 | 0.101 | -0.0059 | -0.0002 | 0.0819 | 0.997 | 1 | 0.779 | 0.955 | 0.984 | 0.985 | 0.82 | 0.978 | 0.971 | 0.972 | 0.989 | 0.905 | 0.726 | 0.326 |
| O=C(c1cc(Cc2n[nH]c(=O)c3ccccc23)ccc1F)N1CCN(C(=O)C2CC2)CC1 [Olaparib] + CC1(C)CCC(CN2CCN(c3ccc(C(=O)NS(=O)(=O)c4ccc(NCC5CCOCC5)c([N+](=O)[O-])c4)c(Oc4cnc5[nH]ccc5c4)c3)CC2)=C(c2ccc(Cl)cc2)C1 [Venetoclax] (first compound max 10 µM, 7x7, partner max 1 µM) | -0.0389 | -0.0439 | -0.0549 | -0.064 | -0.0405 | -0.0472 | 0.373 | 0.166 | 0.173 | 0.119 | 0.118 | 0.155 | 0.008 | 0.153 | 0.0794 | 0.769 | 0.545 | 0.147 | 0.065 | 0.158 |
| Cc1c2c(nn1C)CSCc1cc(n(C)n1)CSc1cc(c3ccccc3c1)OCCCc1c(C(=O)O)n(C)c3c-2c(Cl)ccc13 [AZD5991] + CS(=O)(=O)CCNCc1ccc(-c2ccc3ncnc(Nc4ccc(OCc5cccc(F)c5)c(Cl)c4)c3c2)o1 [Lapatinib] (first compound max 1 µM, 7x7, partner max 10 µM) | 0.0485 | -0.0429 | 0.0331 | 0.0015 | 0.0034 | -0.0272 | 0.305 | 0.327 | 0.515 | 0.213 | 0.332 | 0.2 | 0.39 | 0.723 | 0.81 | 0.471 | 0.442 | 0.456 | 0.469 | 0.974 |
| C[C@@H](Oc1cc(-c2cnn(C3CCNCC3)c2)cnc1N)c1c(Cl)ccc(F)c1Cl [Crizotinib] + Cn1cnc2c(F)c(Nc3ccc(Br)cc3Cl)c(C(=O)NOCCO)cc21 [Selumetinib] (first compound max 10 µM, 7x7, partner max 10 µM) | -0.0274 | -0.0663 | -0.0552 | -0.0114 | -0.043 | -0.0459 | 0.409 | 0.62 | 0.59 | 0.687 | 0.538 | 0.412 | 0.79 | 0.627 | 0.496 | 0.989 | 0.854 | 0.254 | 0.576 | 0.0695 |
